Test results taken from EP0037667A2, “Immobilized lactase, its preparation and use” (priority 1980, dated 1981).
Like-named read-outs stand apart in the source and are kept apart here.

Experiments:
[1] = molecular target: lactase derived from Escherichia coli (β-galactosidase; enzyme number 3. 2. 1. 23) (Escherichia coli, UniProt P00722); details: E. coli lactase, cited from earlier work
[2] = molecular target: T1, lactase originated from Aspergillus oryzae (extracellular enzyme, unimmobilized) (Aspergillus oryzae, UniProt Q2UCU3); test: Km and Ki of free (unimmobilized) Aspergillus oryzae lactase; assay type: biochemical; details: for Ki: substrate, lactose, free enzyme, read-out: Inhibition constant Ki by galactose
T1 construct: obtained from a strain belonging to Aspergillus oryzae as extracellular enzyme; host or cells: Aspergillus oryzae strain (natural producer, secreted)
Procedure: The lactase used in the present invention is obtained from a strain belonging to Aspergillus oryzae as extracellular enzyme, and has the following characteristics:
Km = 0.10 ± 0.05 mole/ℓ (pH 4.5, 30°C, substrate; lactose), and Km = 0.3 ± 0.15 mole/ℓ (pH 6.65, 30°C, substrate; lactose).
Ki = (6 ± 3) x 10^-3 mole/ℓ (pH 4.5, 30°C, substrate; lactose), and Ki = (4 ± 3) x 10^-3 mole/ℓ (pH 6.65, 30°C, substrate; lactose).
In the present specification, 1 ILU is defined as the amount of lactase which produces […] per minute of glucose at pH 4.5 at 30°C when a 13.3 w/v % of lactose solution is used as the substrate. The quantity of glucose thus prepared is defined by using glucose oxidase-peroxidase- dye system. When the measurement of the activity (unit) is carried out at a different pH or temperature, the pH or the temperature will specifically be given in each case.

[3] = molecular target: T2, immobilized lactase: Aspergillus oryzae lactase covalently attached through glutaraldehyde on macroporous phenol-formaldehyde based anion-exchange resin (Aspergillus oryzae, UniProt Q2UCU3); test: Km and Ki of the immobilized lactase, general properties; assay type: biochemical; details: pH 6.65, 30°C, substrate; lactose; immobilized enzyme; read-out: Inhibition constant by galactose Ki
T2 construct: obtained from a strain belonging to Aspergillus oryzae as extracellular enzyme; host or cells: Aspergillus oryzae strain (natural producer, secreted)
Procedure: The enzymatical properties of the present immobilized lactase are given below.
Km = 0.2 ± 0.1 mole/ℓ (both pH 4.5, 30°C, substrate; lactose, and pH 6.65, 30°C, substrate; lactose)
Ki = (8 ± 5) x […] mole/ℓ (pH 4.5, 30°C, substrate; lactose) and Ki = (3 ± 2) x 10^-2 mole/ℓ (pH 6.65, 30°C, substrate; lactose).
Both values of Km and Ki for the immobilized enzyme tend to increase with increase in the concentration of the glutaraldehyde solution used for the treatment, and moreover, in the measurement thereof, it is considerably difficult to obtain the results with good reproducibility. Therefore, the above value given for Km and Ki should be understood taking this respect into consideration."

T1 sequence (Q2UCU3 19-1005): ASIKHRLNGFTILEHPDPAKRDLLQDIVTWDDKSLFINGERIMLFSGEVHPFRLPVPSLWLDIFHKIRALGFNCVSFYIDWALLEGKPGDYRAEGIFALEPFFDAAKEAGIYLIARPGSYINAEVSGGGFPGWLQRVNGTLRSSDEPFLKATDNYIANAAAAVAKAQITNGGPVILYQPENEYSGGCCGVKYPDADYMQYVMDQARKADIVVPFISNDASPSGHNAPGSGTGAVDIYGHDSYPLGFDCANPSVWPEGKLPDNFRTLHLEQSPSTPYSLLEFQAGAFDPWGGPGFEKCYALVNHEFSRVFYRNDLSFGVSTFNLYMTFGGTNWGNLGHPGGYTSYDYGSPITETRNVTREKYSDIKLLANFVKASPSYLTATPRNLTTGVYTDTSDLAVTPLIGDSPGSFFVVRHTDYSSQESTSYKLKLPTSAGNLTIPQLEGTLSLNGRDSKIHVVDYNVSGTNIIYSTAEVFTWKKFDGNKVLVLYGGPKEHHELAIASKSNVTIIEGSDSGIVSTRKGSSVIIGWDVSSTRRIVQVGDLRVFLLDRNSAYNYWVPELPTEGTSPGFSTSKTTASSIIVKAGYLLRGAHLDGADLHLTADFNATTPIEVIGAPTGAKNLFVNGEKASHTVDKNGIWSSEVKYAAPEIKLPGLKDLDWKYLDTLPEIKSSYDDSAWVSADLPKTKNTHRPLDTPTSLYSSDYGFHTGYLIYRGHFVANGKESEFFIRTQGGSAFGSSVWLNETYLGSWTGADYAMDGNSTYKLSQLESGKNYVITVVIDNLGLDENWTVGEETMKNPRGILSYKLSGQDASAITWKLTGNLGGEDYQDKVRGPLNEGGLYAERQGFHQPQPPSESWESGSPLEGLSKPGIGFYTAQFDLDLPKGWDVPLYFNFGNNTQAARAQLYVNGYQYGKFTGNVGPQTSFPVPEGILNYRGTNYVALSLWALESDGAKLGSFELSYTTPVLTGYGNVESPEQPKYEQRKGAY
Sequence of lactase derived from Escherichia coli (β-galactosidase; enzyme number 3. 2. 1. 23) (P00722 2-1024): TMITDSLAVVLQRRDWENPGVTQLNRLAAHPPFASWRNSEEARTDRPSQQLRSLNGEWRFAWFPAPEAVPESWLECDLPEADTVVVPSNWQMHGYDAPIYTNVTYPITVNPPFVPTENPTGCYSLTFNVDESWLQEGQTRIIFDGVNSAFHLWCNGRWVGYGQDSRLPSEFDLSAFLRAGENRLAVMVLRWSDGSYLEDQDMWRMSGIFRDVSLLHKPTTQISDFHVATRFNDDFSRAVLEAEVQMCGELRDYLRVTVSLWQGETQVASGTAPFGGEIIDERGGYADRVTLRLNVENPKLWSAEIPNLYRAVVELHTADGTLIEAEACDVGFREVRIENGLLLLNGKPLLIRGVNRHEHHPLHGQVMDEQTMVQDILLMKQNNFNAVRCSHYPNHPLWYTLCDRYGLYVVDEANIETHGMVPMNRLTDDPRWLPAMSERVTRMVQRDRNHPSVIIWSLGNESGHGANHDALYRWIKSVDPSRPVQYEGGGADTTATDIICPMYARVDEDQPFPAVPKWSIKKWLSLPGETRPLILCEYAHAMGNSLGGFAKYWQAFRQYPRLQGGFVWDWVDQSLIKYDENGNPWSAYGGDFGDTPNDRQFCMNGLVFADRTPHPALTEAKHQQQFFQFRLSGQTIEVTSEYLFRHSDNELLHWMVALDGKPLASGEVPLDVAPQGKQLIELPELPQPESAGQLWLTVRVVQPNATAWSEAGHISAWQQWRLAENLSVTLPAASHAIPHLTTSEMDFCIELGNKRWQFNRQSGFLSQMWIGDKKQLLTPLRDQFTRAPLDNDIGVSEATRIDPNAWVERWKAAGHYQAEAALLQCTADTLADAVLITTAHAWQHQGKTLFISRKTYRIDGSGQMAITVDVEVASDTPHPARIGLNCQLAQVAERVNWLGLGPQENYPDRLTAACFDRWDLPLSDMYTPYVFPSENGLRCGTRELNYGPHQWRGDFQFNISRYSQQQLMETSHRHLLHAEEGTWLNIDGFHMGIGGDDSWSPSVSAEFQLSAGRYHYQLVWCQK
T2 sequence (Q2UCU3 19-1005): as the sequence (Q2UCU3 19-1005) above

Question: Which Km ([1]; read-out: Michaelis constant Km (substrate; ONPG)) does the source give for `O=[N+]([O-])c1ccccc1O[C@@H]1O[C@H](CO)[C@H](O)[C@H](O)[C@H]1O` [ONPG, ortho-nitrophenyl-β-D-galactopyranoside, reference compound] here?
Answer: 0.95 mM

Question: With `OC[C@H]1OC(O)[C@H](O)[C@@H](O)[C@H]1O` (stereo partly drawn) [galactose] as the molecule, how does the Ki ([2]; pH 4.5, 30°C) read?
Answer: 6 mM

Question: What about the Ki ([2]; pH 6.65, 30°C) of the same molecule?
Answer: 4 mM

Question: What about the Ki [3] of the same molecule?
Answer: 30 mM

Question: Which results are given for `OC[C@H]1O[C@@H](O[C@H]2[C@H](O)[C@@H](O)C(O)O[C@@H]2CO)[C@H](O)[C@@H](O)[C@H]1O` (stereo partly drawn) [lactose]?
Answer: Km ([2]; pH 4.5, 30°C, dry lactase powder used in Example 3 (Shinnihon Kagaku Kogyo, 80 ILU/mg)): 100 mM; Km ([1]; read-out: Michaelis constant Km (substrate; lactose)): 7.5 mM
